# Laboratory results taken from US8367829B2, “Bi-functional pyrazolopyridine compounds” (Gilead Sciences, Inc., priority 2010, dated 2013).
# How the values were obtained:
# [1] = tested on: LPS-induced TNF-α release from human peripheral blood mononuclear cells (PBMC); assay: Inhibition of LPS-induced TNF-α release from human PBMC; format: cell-based; settings: LPS 0.4 ng/mL, 6 h, presence or absence of ICI-118551 not given
# Source text: Inhibition of Lipopolysaccharide (LPS)-Induced Tumour Necrosis Factor Alpha (TNF-α) Release from Human Peripheral Blood Mononuclear Cells (PBMC)
# Human whole blood was drawn from donors and cell purification initiated within two hours. Peripheral blood mononuclear cells (PBMC) were purified using a standard Ficoll gradient purification technique and aliquoted at a concentration of 100,000 cells/well in 96 well plates. Beta-2 adrenoreceptor agonists are also anti-inflammatory for some immune cells expressing the receptor and in this assay they can inhibit tumor necrosis factor-alpha (TNF-α) production. Therefore PBMC were pre-incubated for 30 min in the presence of the beta-2 adrenoreceptor antagonist ICI-118551 (3-(isopropylamino)-1-[(7-methyl-4-indanyl)oxy]butan-2-ol) (10 μM) to determine the PDE4 directed activity of test compounds, and in the absence of ICI-118551 for the combined PDE4 and beta-2 receptor directed activity. Test compounds were dissolved in DMSO and diluted in buffer (final DMSO concentration of 0.1% v/v) and were then added to the cell suspensions and pre-incubated for a further 1 h at 37° C. LPS solution was then added (0.4 ng/mL) and the cells incubated for a further 6 h. At the end of the incubation period the cell supernatants were collected and TNF-α was measured using a Procarta Cytokine Assay Kit (Affymetrix, Santa Clara, Calif.) according to the manufacturers' instructions. Data were analyzed using MiraiBio Masterplex QT v4.0 software (MasterPlex Version 1.0.1.18 Copyright 2008, Hitachi Software Engineering Co., Ltd) and used to extrapolate Mean Fluorescence Intensity (MFI) into concentrations of TNF-α and mean values from replicate wells were determined. Inhibition curves were plotted using a nonlinear curve fit employing a single-site binding model to determine the IC50 value for each test compound in the presence or absence of ICI-118551 using GraphPad Prism 5 for Windows, version 5.02 (GraphPad Software, San Diego Calif.).
# EC50 determinations for the compounds presented above are seen in the fourth column of Table 1 (PBMC TNF EC50).
# Human recombinant PDE4B2 = target: T1, Human recombinant PDE4B2 (Homo sapiens, UniProt Q07343); assay: Inhibition of PDE4B2 enzyme activity (PDE Glo Assay); format: biochemical; settings: human recombinant PDE4B2, 50 nM cAMP; read-out: PDE4 IC50
# T1 construct: purchased BPS Bioscience
# T1 sequence (Q07343 1-564 isoform Q07343-2): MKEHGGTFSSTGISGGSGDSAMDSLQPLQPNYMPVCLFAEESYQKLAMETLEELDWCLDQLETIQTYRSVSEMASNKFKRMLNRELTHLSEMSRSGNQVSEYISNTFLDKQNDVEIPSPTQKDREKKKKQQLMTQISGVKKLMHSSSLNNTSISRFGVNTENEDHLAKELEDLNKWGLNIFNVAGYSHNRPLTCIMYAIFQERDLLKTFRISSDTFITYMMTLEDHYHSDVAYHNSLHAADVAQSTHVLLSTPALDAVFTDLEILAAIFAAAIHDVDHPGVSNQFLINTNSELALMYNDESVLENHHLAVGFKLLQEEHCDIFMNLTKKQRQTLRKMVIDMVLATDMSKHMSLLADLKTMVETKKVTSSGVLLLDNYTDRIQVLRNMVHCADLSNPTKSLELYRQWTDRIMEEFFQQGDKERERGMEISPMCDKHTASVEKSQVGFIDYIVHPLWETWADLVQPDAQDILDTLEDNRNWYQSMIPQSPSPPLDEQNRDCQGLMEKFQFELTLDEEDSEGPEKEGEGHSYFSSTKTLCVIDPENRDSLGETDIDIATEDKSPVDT
# Method: Inhibition of PDE4B4 Enzyme Activity
# The inhibitory activity of test compounds were determined using the PDE Glo Assay (Promega, V1361). The PDE-Glo Reaction Buffer was prepared (1 mL 5× buffer+4 mL water) and 150 nM solution of test compound dissolved in the Reaction Buffer, followed by 1:3 serial dilutions into Reaction Buffer. […] Human recombinant PDE4B2 (BPS Bioscience) was added to test compound in Reaction Buffer at a concentration of 0.12 nM per reaction. The enzyme and test compound were pre-incubated together at rt for 10 min. 50 nM of the enzyme substrate cAMP was then added to initiate the enzyme reaction, with the reaction terminated after one hour. Termination Buffer (1 mL 5× termination buffer+3.9 mL water+100 μL of 100 mM IBMX (ICN Chemicals, in DMSO)), was added to each reaction well to terminate the reaction. Detection Buffer (1 mL 5×PDE-Glo Detection buffer+3.96 mL water+40 μL PKA (supplied in kit)) was added to the cAMP-enzyme-test compound mix and this secondary reaction proceeded for 20 minutes at rt. An equal volume of Kinase Glo Reagent was then added to the reaction mixture and after 10 min luminescence was measured using a luminometer (EnVision, 0.1 sec read for luminescence). Luminescence values were […] related to levels of cAMP in the reaction mixture. Data were plotted as relative light units (RLU) versus test compound concentration and the IC50 determined using GraphPad Prism 5.0, using a nonlinear curve fit in a single-site binding model.
# IC50 determinations for the compounds presented above are seen in the first column of Table 1 (PDE4 IC50).
# [2] = target: T2, human recombinant beta-2 adrenoreceptors (Homo sapiens, UniProt P07550); assay: Functional agonism of human recombinant beta-2 adrenoreceptors expressed in CHO cells (cAMP, HTRF); format: cell-based; settings: cAMP elevation, 30 min
# T2 construct: expressed in transfected cells; host or cells: CHO cells
# T2 sequence (P07550 whole entry): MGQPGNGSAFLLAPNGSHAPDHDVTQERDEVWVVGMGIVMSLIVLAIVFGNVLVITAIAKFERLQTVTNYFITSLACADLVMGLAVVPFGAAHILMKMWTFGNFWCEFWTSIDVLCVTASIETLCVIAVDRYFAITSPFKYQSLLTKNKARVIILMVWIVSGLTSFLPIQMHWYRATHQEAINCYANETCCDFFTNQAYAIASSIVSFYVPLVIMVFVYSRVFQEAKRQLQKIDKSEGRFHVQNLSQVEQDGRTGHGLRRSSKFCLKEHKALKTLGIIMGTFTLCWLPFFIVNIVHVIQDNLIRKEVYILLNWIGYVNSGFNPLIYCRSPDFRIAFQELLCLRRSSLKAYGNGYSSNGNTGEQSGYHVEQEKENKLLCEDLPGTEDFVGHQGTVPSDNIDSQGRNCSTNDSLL
# Method: Functional Agonism of Human Recombinant Beta-2 Adrenoreceptors Expressed in Chinese Hamster Oocytes (CHO)
# Test compounds were incubated for 30 min with CHO cells expressing the human recombinant beta-2 adrenoreceptors. Agonism of the receptor was measured by the elevation of intracellular cyclic-AMP over control levels detected using a homogeneous time resolved fluorescence (HTRF) format. Compounds were determined to be “full” or “partial” agonists based on the maximum level of cAMP accumulated compared to the control compound isoproterenol which is a full agonist in this assay system. Concentration response curves were generated for test compounds and the EC50 (molar concentration of the agonist which produced 50% of the maximal response for that compound) was determined. These assays were performed using a protocol based on the original description of the assay by Baker, J. G. (2005) Brit. J. Pharmacol.; 144:317-322.
# EC50 determinations for the compounds presented above are seen in the third column of Table 1 (Beta 2 EC50).
# [3] = target: T2, human recombinant beta-2 adrenoreceptors; assay: Beta-2 adrenoceptor binding assay, displacement of [3H](−)CGP-12177; settings: CHO cells expressing human beta-2 adrenoreceptors, [3H](−)CGP-12177 0.3 nM, 120 min
# Method: Beta-2 Adrenoceptor Binding Assay
# Test compounds were incubated for 120 min with Chinese hamster oocyte (CHO) cells expressing the human recombinant beta-2 adrenoreceptors. Binding of test compounds to the beta-2 adrenoreceptors was determined by measuring the displacement of the radiolabeled ligand [^3H](−)CGP-12177 (0.3 nM) from the receptor measured by a scintillation counting. Concentration response curves were generated for test compounds and the IC50 (molar concentration of the compound which produced 50% inhibition for the maximal response for that compound) was determined. These assays were performed using a protocol based on the original description of the assay by Joseph et al., (2004) Naun.-Sch. Arch. Pharm.; 369:525-532.
# IC50 determinations for the compounds presented above are seen in the second column of Table 1 (Beta 2 IC50).
IC50 (Human recombinant PDE4B2) [nM],EC50 [2] [nM],IC50 [3] [nM],Compound,EC50 [1] [nM]
< 100,< 100,< 100,"CCc1nc2c(cnn2CC)c(NC2CCOCC2)c1CNC(=O)c1ccc(CCCCCNC[C@H](O)c2ccc(O)c3[nH]c(=O)ccc23)cc1 [Example 9, (R)—N-[[1,6-diethyl-4-[(tetrahydro-2H-pyran-4-yl)amino]-1H-pyrazolo[3,4-b]pyridin-5-yl]methyl]-4-[5-[[2-hydroxy-2-(8-hydroxy-2-oxo-1,2-dihydroquinolin-5-yl)ethyl]amino]pentyl]benzamide]",< 100
< 100,> 300,> 300,"CCc1nc2c(cnn2CC)c(NC2CCOCC2)c1CNC(=O)c1cccc(CNC[C@H](O)c2ccc(O)c(CO)c2)c1 [Example 7, (R)—N-[[1,6-Diethyl-4-[(tetrahydro-2H-pyran-4-yl)amino]-1H-pyrazolo[3,4-b]pyridin-5-yl]methyl]-3-[[[2-hydroxy-2-[4-hydroxy-3-(hydroxymethyl)phenyl]ethyl]amino]methyl]benzamide]",> 300
